In patent US4808596A, “Imidazo[4,5-b]pyridine compounds and pharmaceutical compositions containing same” (Tokyo Tanabe Company, Ltd., priority 1986, dated 1989):
Read-outs that look alike come from different tables or passages of the source.

Columns and labels:
Aspirin ulcer = assay: Inhibitory effect on aspirin ulcer; assay type: in vivo, male Wistar rats; settings: Rattus norvegicus; oral, rats; 30 minutes before ligation; aspirin 150 mg/kg; 7 hours; read-out: Inhibitory effect on Aspirin ulcer, ID50
Procedure: (§1) The inhibitory effects of the present compounds [I] on various experimental ulcers were tested by using male Wistar rats, weighing about 200 g, in groups of six and determining the respective ulceration indexes for 5 types of experimental ulcers. In each test, the test compounds were suspended in a 0.5% aqueous solution of carboxymethyl cellulose and administered orally in a series of appropriately selected doses ranging from 1 to 100 mg/kg. The test procedures for 5 types of experimental ulcers were as follows:
In rats which had been fasted for 24 hours, the pyloric end of the stomach was ligated. After 5 minutes, aspirin was orally administered thereto in a dose of 150 mg/kg. Seven hours after ligation, each rat was sacrificed and the length of the ulcer(s) formed in the glandular stomach part was measured. The ulceration index was calculated on the basis of the data thus obtained. The test compounds were administered 30 minutes before ligation.
(§2) The pharmacological effect of the test compounds on each of the aforesaid experimental ulcers was evaluated on the basis of the dose (in mg/kg) required to inhibit the formation of ulcers by 50% (hereinafter referred to as ID50). The ID50 value of each test compound was determined by calculating the difference in ulceration index between the untreated group and each treated group, dividing the difference by the ulceration index of the untreated group to obtain the degree of inhibition, and constructing a dose-response curve on the basis of the data thus obtained. For purposes of comparison, the ID50 values of Omeprazole and Compounds α and β were determined in the same manner as described above and are also shown in Table 4.

[1] = tested on: Hydrochloric acid-ethanol ulcer; assay: Inhibitory effect on hydrochloric acid-ethanol ulcer; assay type: in vivo, male Wistar rats; settings: Rattus norvegicus; oral, rats; 30 minutes before hydrochloric acid-ethanol; 1 hour; read-out: Inhibitory effect on Hydrochloric acid-ethanol ulcer, ID50
Procedure: as §1
To rats which had been fasted for 24 hours, a 150 mM hydrochloric acid-60% ethanol mixture was orally administered in an amount of 0.5 ml per 100 g of body weight. After an hour, each rat was sacrificed and the length of the ulcer(s) formed in the glandular stomach part was measured. The ulceration index was calculated on the basis of the data thus obtained. The test compounds were administered 30 minutes before administration of the hydrochloric acid-ethanol mixture.
as §2

Indomethacin ulcer = assay: Inhibitory effect on indomethacin ulcer; assay type: in vivo, male Wistar rats; settings: Rattus norvegicus; oral, rats; 30 minutes before indomethacin 25 mg/kg s.c.; 7 hours; read-out: Inhibitory effect on Indomethacin ulcer, ID50
Procedure: as §1
To rats which had been fasted for 24 hours, indomethacin was subcutaneously administered in a dose of 25 mg/kg. After 7 hours, each rat was sacrificed and the length of the ulcer(s) formed in the glandular stomach part was measured. The ulceration index was calculated on the basis of the data thus obtained. The test compounds were administered 30 minutes before administration of indomethacin.
as §2

physchem = assay type: physicochemical; settings: for remaining at 192 h: solid
Procedure: The storage stability of the present compounds [I] was tested by allowing each test compound to stand under severe conditions (i.e., a temperature of 60° C. and a relative humidity of 75%) for 8 days and then determining its percentage of residue according to a thin-layer densitometric method (Bunseki Kagaku, Vol. 23, No. 9, p. 1016, 1974). More specifically, upon completion of the severe treatment, 100 μg of each test compound was applied to a thin-layer plate and this plate was developed with a chloroform-ethanol mixture (volume ratio 10:1). The thin-layer plate used for this purpose was a TLC Plate Aluminum Oxide 60F254 (manufactured by Merck Co.; 0.25 mm in thickness and 20 cm×20 cm in size), and it was developed over a distance of 15 cm. Then, using a Shimazu Two-wavelength Chromatoscanner CS-910 (manufactured by Shimazu Seisakusho), the resulting spot was analyzed at a wavelength of 300-315 nm.
For purposes of comparison, the percentages of residue of Omeprazole (at a measuring wavelength of 300 nm) and Compounds α and β (at a measuring wavelength of 310 nm) were determined in the same manner as described above and are also shown in Table 1.

[2] = tested on: various experimental ulcers; assay: Inhibitory effects on various experimental ulcers (overall statement); set-up: species or system male Wistar rats; settings: in vivo
Procedure: as §1, §2

[3] = Acute toxicity test (LD50); settings: rat, in vivo, rats
Procedure: The acute toxicity (LD50) of several typical examples of the present compounds [I] (i.e., the compounds of Examples 1, 8, 13, 19, 24, 26 and 33) was tested with 5-weeks-old male Wistar rats. […] When Omeprazole was administered orally, its LD50 value was greater than 4000 mg/kg.

[4] = ip, intraperitoneal administration

| storage stability (in words) (physchem) | Structure (SMILES) | ED50 (Aspirin ulcer) [mg/kg] | ED50 [1] [mg/kg] | ED50 (Indomethacin ulcer) [mg/kg] | remaining at 192 h (physchem; 75% rh) [%] | inhibitory effects on various experimental ulcers (in words) [2] | LD50 [3, 4] [mg/kg] | LD50 ([3]; oral administration) [mg/kg] | remaining at 192 h (physchem; after treatment at 60° C. and 75% RH for 8 days, read-out: Storage stability, Percentage of residue) [%] |
| --- | --- | --- | --- | --- | --- | --- | --- | --- | --- |
| defective in storage stability | COc1c(C)cnc(C[S+]([O-])c2nc3ncc(Br)cc3[nH]2)c1C (stereo not drawn) [Compound α, 2-[2-(3,5-dimethyl-4-methoxy)pyridylmethylsulfinyl]-6-bromoimidazo[4,5-b]pyridine, reference compound] | ≥ 100 | 63.3 | 78.4 | 0 | not satisfactorily reflected in the in vivo tests |  |  |  |
| defective in storage stability | COc1c(C)cnc(C[S+]([O-])c2nc3ncc(C)cc3[nH]2)c1C (stereo not drawn) [Compound β, 2-[2-(3,5-dimethyl-4-methoxy)pyridylmethylsulfinyl]-6-methylimidazo[4,5-b]-pyridine, reference compound] | 23.8 | 25.4 | 29.5 | 9 | not satisfactorily reflected in the in vivo tests |  |  |  |
|  | COc1ccc2[nH]c([S+]([O-])Cc3ncc(C)cc3C)nc2n1 (stereo not drawn) [Example 1, 2-[2-(3,5-Dimethyl)pyridylmethylsulfinyl]-5-methoxyimidazo[4,5-b]pyridine] | 6.3 | 5.1 | 12.9 | 98 |  | > 500 | > 4000 |  |
|  | CCOc1ccc2[nH]c([S+]([O-])Cc3ncc(C)c(C)c3C)nc2n1 (stereo not drawn) [Example 8, 2-[2-(3,4,5-Trimethyl)pyridylmethylsulfinyl]-5-ethoxyimidazo[4,5-b]pyridine] | 10.7 | 8.2 | 18.8 | 96 |  | > 500 | > 4000 |  |
|  | COc1cc(C[S+]([O-])c2nc3nc(OCC4CC4)ccc3[nH]2)ncc1C (stereo not drawn) [Example 13, 2-[2-(4-Methoxy-5-methyl)pyridylmethylsulfinyl]-5-cyclopropylmethyloxyimidazo[4,5-b]pyridine] | 14.5 | 9.6 | 21.9 | 88 |  | > 500 | > 4000 |  |
|  | COc1c(C)cnc(C[S+]([O-])c2nc3nc(OCC4CC4)ccc3[nH]2)c1C (stereo not drawn) [Example 24, 2-[2-(3,5-Dimethyl-4-methoxy)pyridylmethylsulfinyl]-5-cyclopropylmethyloxyimidazo[4,5-b]pyridine] | 5.4 | 3.5 | 13.1 | 94 |  | > 500 | > 4000 |  |
|  | COc1c(C)cnc(C[S+]([O-])c2nc3nc(OCC(F)(F)F)ccc3[nH]2)c1C (stereo not drawn) [Example 26, 2-[2-(3,5-Dimethyl-4-methoxy)pyridylmethylsulfinyl]-5-(2,2,2-trifluoroethoxy)imidazo[4,5-b]pyridine] | 9.5 | 7.9 | 15.8 | 92 |  | > 500 | > 4000 |  |
|  | CCCCCCCOc1ccc2[nH]c([S+]([O-])Cc3ncc(C)cc3C)nc2n1 (stereo not drawn) [Example 33, 2-[2-(3,5-Dimethyl)pyridylmethylsulfinyl]-5-n-heptyloxyimidazo[4,5-b]pyridine] | 12.6 | 10.3 | 23.2 | 89 |  | > 500 | > 4000 |  |

| Structure (SMILES) | storage stability (in words) (physchem) | ED50 (Aspirin ulcer) [mg/kg] | ED50 [1] [mg/kg] | ED50 (Indomethacin ulcer) [mg/kg] | remaining at 192 h (physchem; 75% rh) [%] | inhibitory effects on various experimental ulcers (in words) [2] | LD50 [3, 4] [mg/kg] | LD50 ([3]; oral administration) [mg/kg] | remaining at 192 h (physchem; after treatment at 60° C. and 75% RH for 8 days, read-out: Storage stability, Percentage of residue) [%] |
| --- | --- | --- | --- | --- | --- | --- | --- | --- | --- |
| COc1ccc2[nH]c([S+]([O-])Cc3ncc(C)c(OC)c3C)nc2c1 (stereo not drawn) [Omeprazole, reference compound] | undergoes a higher degree of deterioration than might be expected | 17.2 | 13.6 | 24.7 |  |  |  | > 4000 | 3 |
